According to patent publication US20130224761A1, “NON COVALENT MOLECULAR STRUCTURE, COMPRISING A PORPHYRIN BASED GLYCOCONJUGATE, DEVICE COMPRISING THE SAME AND ITS USE FOR DETECTION OF LECTIN” (CENTRE NATIONAL DE LA RECHERCHE SCIENTIFIQUE (CNRS), priority 2011, published 2013):

Columns and labels:
ConA lectin [1] = assay: AFM imaging of SWNT functionalized with glycoconjugate before and after ConA lectin attachment; type: binding, Canavalia ensiformis; conditions: 5 μM Ca2+
Procedure: Atomic force microscope (AFM) images (FIG. 4) were obtained using scanning probe microscope (Veeco Nanoscope II) in a tapping mode configuration. Samples were prepared by spin coating of bare or functionalized SWNTs onto a freshly cleaved sheet of mica. The images were taken after 30 min of drying in ambient and subsequent washing with PBS solution (for functionalized SWNTs).
FIG. 4a depicts a small bundle of bare SWNTs with diameter of 3.4 nm. After non covalent functionalization with glycoconjugate “5b” (non covalent molecular structure “SWNT-5b”), SWNT bundles show diameters of 11.7-14.6 nm (FIG. 4b). Con A lectin binding to the functionalized “SWNT-5b” nanostructures (“SWNT-5b-ConA”) increases SWNT diameters to 18.3 nm (FIG. 4c).

ConA lectin [2] = assay: SWNT-FET electronic detection of glycoconjugate-lectin interaction (G vs Vg); type: binding, Canavalia ensiformis; conditions: SWNT-FET functionalized with glycoconjugate; 5 μM lectin, 5 μM Ca2+, PBS pH 7
Description: ConA (25 kDa) is a plant lectin from Canavalia ensiformis that is specific for α-D-mannose and is available commercially from Sigma and used without further purification.

ConA lectin [3] = assay: CCG-FET electronic detection of glycoconjugate-lectin interaction (G vs Vg); type: binding, Canavalia ensiformis; conditions: CCG-FET functionalized with glycoconjugate; 2 μM lectin, 5 μM Ca2+, PBS
Procedure: (§1) FIG. 6 illustrates the electronic detection of carbohydrate-lectin interactions.
(§2) For each glycoconjugate functionalized device, non-specific lectins were tested first, followed by washing procedures and measuring of specific lectin. The final transfer characteristics were tested again in the configuration mentioned above.

PA-IL lectin [4] = biological target: T1, PA-IL lectin (Pseudomonas aeruginosa, UniProt Q05097); assay: as above; type: binding; conditions: CCG-FET functionalized with glycoconjugate; 2 μM lectin, 5 μM Ca2+, PBS
T1 construct: made in house; host or cells: Escherichia coli
T1 sequence (Q05097 whole entry): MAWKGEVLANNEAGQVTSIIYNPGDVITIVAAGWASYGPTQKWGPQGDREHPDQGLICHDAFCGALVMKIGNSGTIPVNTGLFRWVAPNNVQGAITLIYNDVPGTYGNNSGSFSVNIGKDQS
Procedure: as §1, §2

PA-IIL lectin = conditions: SWNT-FET functionalized with glycoconjugate; 5 μM lectin per FIG. 5 legend (1 μM elsewhere in the source), 5 μM Ca2+, PBS pH 7
Procedure: (§3) Lectin attachment was performed in the presence of 5 μM Ca^2+.
(§4) The electrical performance of each such obtained “SWNT-FET” device was investigated in electrolyte gated FET device configuration. […] A small fluid (1 mL) chamber was placed over the SWNT-FET device to control the liquid environment using phosphate buffer solution (PBS) at pH 7. A liquid gate potential (−0.75V to 0.75 V) with respect to the grounded drain electrode was applied using Ag/AgCl (3 M KCl) reference electrode submerged in the electrolyte. The drain current of the device was measured at a constant source-drain voltage of 50 mV.
Surface functionalization of SWNT FET device with each porphyrin based glycoconjugate respectively named “5a”, “5b” and “5c” was performed by incubating them in their 5 μM solution in deionized water for 2 hours followed by rinsing with deionized water. This step was followed by incubating the chips for 30 minutes in different concentrations of lectin solutions prepared in PBS with 5 μM CaCl2 and latter rinsing with PBS solution.

PA-IL lectin [5] = biological target: T1, PA-IL lectin; assay: SWNT-FET electronic detection of glycoconjugate-lectin interaction (G vs Vg); type: binding; conditions: SWNT-FET functionalized with glycoconjugate; 5 μM lectin, 5 μM Ca2+, PBS pH 7
Procedure: as §3, §4
This step was followed by incubating the chips for 30 minutes in different concentrations of lectin solutions prepared in PBS with 5 μM CaCl2 and latter rinsing with PBS solution.

Compound	binding of Con A lectin to glycoconjugate on the surface of SWNTs (AFM) (ConA lectin [1])	SWNT diameter after Con A lectin binding to functionalized SWNT (AFM) (ConA lectin [1]; SWNT-5b-ConA, 11.7-14.6 nm before lectin, bare SWNT bundle 3.4 nm) [nm]	change in G vs Vg curve (threshold voltage, conductance) on treating with ConA lectin (ConA lectin [2])	change in G vs Vg curve (threshold voltage, conductance) on treating with ConA lectin (ConA lectin [3])	change in G vs Vg curve (threshold voltage, conductance) on treating with PA-IL lectin (PA-IL lectin [4])	change in G vs Vg curve (threshold voltage, conductance) on treating with PA-IIL lectin (PA-IIL lectin)	change in G vs Vg curve (threshold voltage, conductance) on treating with PA-IL lectin (PA-IL lectin [5])
5,10,15,20-Tetrakis(4′-{1-[(α-D-mannopyranosyloxy)-3,6-dioxaoct-8-yl]-1,2,3-triazol-4-yl}methyleneoxyphenyl)-Zn-(II)-porphyrin [5b]	specific binding	18.3	positive interaction	negative shift in threshold voltage and further decrease in conductance	no significant change	no significant change	–
C[C@@H]1O[C@@H](OCCOCCOCCn2cc(COc3ccc(-c4c5nc(c(-c6ccc(OCc7cn(CCOCCOCCO[C@@H]8O[C@@H](C)[C@@H](O)[C@@H](O)[C@@H]8O)nn7)cc6)c6ccc([n-]6)c(-c6ccc(OCc7cn(CCOCCOCCO[C@@H]8O[C@@H](C)[C@@H](O)[C@@H](O)[C@@H]8O)nn7)cc6)c6nc(c(-c7ccc(OCc8cn(CCOCCOCCO[C@@H]9O[C@@H](C)[C@@H](O)[C@@H](O)[C@@H]9O)nn8)cc7)c7ccc4[n-]7)C=C6)C=C5)cc3)nn2)[C@@H](O)[C@H](O)[C@@H]1O.[Zn+2] [5c, 5,10,15,20-Tetrakis(4′-{1-[(α-L-fucopyranosyloxy)-3,6-dioxaoct-8-yl]-1,2,3-triazol-4-yl}methyleneoxyphenyl)-Zn-(II)-porphyrin]	–	–	–	–	–	positive interactions	–
5,10,15,20-Tetrakis(4′-{1-[(β-D-galactopyranosyloxy)-3,6-dioxaoct-8-yl]-1,2,3-triazol-4-yl}methyleneoxyphenyl)-Zn-(II)-porphyrin [5a]	–	–	–	no significant change	negative shift in threshold voltage and further decrease in conductance	–	selective response
